Assay results: patent US20140073628A1, “BENZOXAZEPINES ASN INHIBITORS OF P13K/M TOR AND METHODS OF THEIR USE AND MANUFACTURE” (priority 2010, published 2014)

Target: mTOR/GbL/Raptor (mTORC1) (Homo sapiens, UniProt P42345)
Assay: mTOR/GbL/Raptor (mTORC1) ELISA assay
Assay type: biochemical
Conditions: phosphorylation of 4E-BP1; 0.2 nM mTORC1, 10 μM ATP, 50 nM NHis-tagged 4E-BP1
Procedure: mTOR/GbL/Raptor (mTORC1) ELISA Assay
The measurement of mTORC1 enzyme activity was performed in an ELISA assay format following the phosphorylation of 4E-BP1 protein. All experiments were performed in the 384-well format. Generally, 0.5 μL DMSO containing varying concentrations of the test compound was mixed with 15 μL enzyme solution. Kinase reactions were initiated with the addition of 15 μL of substrates-containing solution. The assay conditions were as follows; 0.2 nM mTORC1, 10 μM ATP and 50 nM NHis-tagged 4E-BP1 in 20 mM Hepes, pH 7.2, 1 mM DTT, 50 mM NaCl, 10 mM MnCl2, 0.02 mg/mL BSA, 0.01% CHAPS, 50 mM β-glycerophosphate. Following an incubation of 120 minutes at ambient temperature, 20 μL of the reaction volume was transferred to a Ni-Chelate-coated 384-well plate. The binding step of the 4E-BP1 protein proceeded for 60 minutes, followed by washing 4 times each with 50 μL of Tris-buffered saline solution (TBS). Anti-phospho-4E-BP1 rabbit-IgG (20 μL, 1:5000) in 5% BSA-TBST (0.2% Tween-20 in TBS) was added and further incubated for 60 minutes. Incubation with a secondary HRP-tagged anti-IgG was similarly performed after washing off the primary antibody (4 washes of 50 μL). Following the final wash step with TBST, 20 μL of SuperSignal ELISA Femto (Pierce Biotechnology) was added and the luminescence measured using an EnVision plate reader.

Row | Structure (SMILES) | IC50 [nM]
1 | Cc1nc2cc(-c3ccc4c(c3)CN(c3nc(C(C)N)nc5c3CC(C)(C)CC5)CCO4)ccc2[nH]1 (stereo not drawn) [Compound 24, 1-{6,6-dimethyl-4-[7-(2-methyl-1H-benzimidazol-5-yl)-2,3-dihydro-1,4-benzoxazepin-4(5H)-yl]-5,6,7,8-tetrahydroquinazolin-2-yl}ethanamine] | ≤ 100
2 | Cc1nc2cc(-c3ccc4c(c3)CN(c3nc(N)nc(C)c3C(C)C)CCO4)ccc2[nH]1 [Compound 41, 4-methyl-6-[7-(2-methyl-1H-benzimidazol-5-yl)-2,3-dihydro-1,4-benzoxazepin-4(5H)-yl]-5-(1-methylethyl)pyrimidin-2-amine] | ≤ 100
3 | C=CCc1c(C)nc(N)nc1N1CCOc2ccc(-c3ccc4nc(C)[nH]c4c3)cc2C1 [Compound 35, 4-methyl-6-[7-(2-methyl-1H-benzimidazol-5-yl)-2,3-dihydro-1,4-benzoxazepin-4(5H)-yl]-5-prop-2-en-1-ylpyrimidin-2-amine] | ≤ 100
4 | Cc1nc2cc(-c3ccc4c(c3)CN(c3nc(CN(C)C)nc(C)c3Cl)CCO4)ccc2[nH]1 [Compound 31, 1-{5-chloro-4-methyl-6-[7-(2-methyl-1H-benzimidazol-5-yl)-2,3-dihydro-1,4-benzoxazepin-4(5H)-yl]pyrimidin-2-yl}-N,N-dimethylmethanamine] | 500 to 2500
5 | COc1ccc2c(N3CCOc4ccc(-c5ccc6[nH]c(C)nc6c5)cc4C3)nc(CN(C)C)nc2c1 [Compound 38, N,N-dimethyl-1-{4-[7-(2-methyl-1H-benzimidazol-5-yl)-2,3-dihydro-1,4-benzoxazepin-4(5H)-yl]-7-(methyloxy)quinazolin-2-yl}methanamine] | 500 to 2500
6 | CCNc1nc2cc(-c3ccc4c(c3)CN(c3nc(N)nc(C)c3C(C)C)CCO4)ccc2[nH]1 [Compound 42, 5-{4-[2-amino-6-methyl-5-(1-methylethyl)pyrimidin-4-yl]-2,3,4,5-tetrahydro-1,4-benzoxazepin-7-yl}-N-ethyl-1H-benzimidazol-2-amine] | ≤ 100
7 | CCCc1c(C)nc(CN(C)C)nc1N1CCOc2ccc(-c3ccc4nc(C)[nH]c4c3)cc2C1 [Compound 32, N,N-dimethyl-1-{4-methyl-6-[7-(2-methyl-1H-benzimidazol-6-yl)-2,3-dihydro-1,4-benzoxazepin-4(5H)-yl]-5-propylpyrimidin-2-yl}methanamine] | 500 to 2500
8 | Cc1nc2cc(-c3ccc4c(c3)CN(c3cc(N)ncc3C#N)CCO4)ccc2[nH]1 [Compound 28, 6-amino-4-[7-(2-methyl-1H-benzimidazol-5-yl)-2,3-dihydro-1,4-benzoxazepin-4(5H)-yl]pyridine-3-carbonitrile] | ≤ 100
9 | COc1ccc2c(N3CCOc4ccc(-c5cnc6[nH]cnc6c5)cc4C3)nc(CN(C)C)nc2c1 [Compound 49, 1-{4-[7-(3H-imidazo[4,5-b]pyridin-6-yl)-2,3-dihydro-1,4-benzoxazepin-4(5H)-yl]-7-(methyloxy)quinazolin-2-yl}-N,N-dimethylmethanamine] | 500 to 2500
10 | CCNc1nc(C)c(Cc2ccc(F)cc2)c(N2CCOc3ccc(-c4ccc5[nH]c(C)nc5c4)cc3C2)n1 [Compound 12, N-ethyl-5-[(4-fluorophenyl)methyl]-4-methyl-6-[7-(2-methyl-1H-benzimidazol-5-yl)-2,3-dihydro-1,4-benzoxazepin-4(5H)-yl]pyrimidin-2-amine] | ≤ 100
11 | COC(=O)Nc1nc2cc(-c3ccc4c(c3)CN(c3nc(N)nc(C)c3C(C)C)CCO4)ccc2[nH]1 [Compound 17, methyl (5-{4-[2-amino-6-methyl-5-(1-methylethyl)pyrimidin-4-yl]-2,3,4,5-tetrahydro-1,4-benzoxazepin-7-yl}-1H-benzimidazol-2-yl)carbamate] | ≤ 100
12 | CC1(C)CCc2nc(N)nc(N3CCOc4ccc(-c5ccc6[nH]cnc6c5)cc4C3)c2C1 [Compound 27, 4-[7-(1H-benzimidazol-5-yl)-2,3-dihydro-1,4-benzoxazepin-4(5H)-yl]-6,6-dimethyl-5,6,7,8-tetrahydroquinazolin-2-amine] | ≤ 100
13 | CC1(C)CCc2nc(N)nc(N3CCOc4ccc(-c5cnc6[nH]cnc6c5)cc4C3)c2C1 [Compound 45, 4-[7-(3H-imidazo[4,5-b]pyridin-6-yl)-2,3-dihydro-1,4-benzoxazepin-4(5H)-yl]-6,6-dimethyl-5,6,7,8-tetrahydroquinazolin-2-amine] | ≤ 100
14 | CC(=O)OCc1nc(C)c(C(C)C)c(N2CCOc3ccc(-c4ccc5nc(C)[nH]c5c4)cc3C2)n1 [Compound 4, {4-methyl-6-[7-(2-methyl-1H-benzimidazol-5-yl)-2,3-dihydro-1,4-benzoxazepin-4(5H)-yl]-5-(1-methylethyl)pyrimidin-2-yl}methyl acetate] | ≤ 100
15 | CCN(CC)Cc1nc(C)c(C(C)C)c(N2CCOc3ccc(-c4ccc5nc(C)[nH]c5c4)cc3C2)n1 [Compound 3, N-ethyl-N-({4-methyl-6-[7-(2-methyl-1H-benzimidazol-5-yl)-2,3-dihydro-1,4-benzoxazepin-4(5H)-yl]-5-(1-methylethyl)pyrimidin-2-yl}methyl)ethanamine] | 100 to 500
16 | Cc1nc2cc(-c3ccc4c(c3)CN(c3nc(CN(C)C)nc(C)c3CC(C)C)CCO4)ccc2[nH]1 [Compound 23, N,N-dimethyl-1-{4-methyl-6-[7-(2-methyl-1H-benzimidazol-5-yl)-2,3-dihydro-1,4-benzoxazepin-4(5H)-yl]-5-(2-methylpropyl)pyrimidin-2-yl}methanamine] | 100 to 500
17 | Cc1nc2ncc(-c3ccc4c(c3)CN(c3nc(N)nc5c3CC(C)(C)CC5)CCO4)cc2[nH]1 [Compound 44, 6,6-dimethyl-4-[7-(2-methyl-1H-imidazo[4,5-b]pyridin-6-yl)-2,3-dihydro-1,4-benzoxazepin-4(5H)-yl]-5,6,7,8-tetrahydroquinazolin-2-amine] | ≤ 100
18 | Cc1nc2ccc(-c3cc(F)c4c(c3)CN(c3nc(N)nc(C)c3C(C)C)CCO4)cc2[nH]1 [Compound 51, 4-[9-fluoro-7-(2-methyl-1H-benzimidazol-6-yl)-2,3-dihydro-1,4-benzoxazepin-4(5H)-yl]-6-methyl-5-(1-methylethyl)pyrimidin-2-amine] | ≤ 100
19 | Cc1nc2ccc(-c3ccc4c(c3)CN(c3nc(CN(C)C)nc(C)c3C)CCO4)cc2[nH]1 [Compound 2, I-{4,5-dimethyl-6-[7-(2-methyl-1H-benzimidazol-6-yl)-2,3-dihydro-1,4-benzoxazepin-4(5H)-yl]pyrimidin-2-yl}-N,N-dimethylmethanamine] | 500 to 2500
20 | Cc1nc2cc(-c3ccc4c(c3)CN(c3nc(N)nc(C)c3Cc3ccc(F)cc3)CCO4)ccc2[nH]1 [Compound 39, 5-[(4-fluorophenyl)methyl]-4-methyl-6-[7-(2-methyl-1H-benzimidazol-5-yl)-2,3-dihydro-1,4-benzoxazepin-4(5H)-yl]pyrimidin-2-amine] | ≤ 100
21 | COCCc1c(C)nc(CN(C)C)nc1N1CCOc2ccc(-c3ccc4nc(C)[nH]c4c3)cc2C1 [Compound 1, N,N-dimethyl-1-{4-methyl-6-[7-(2-methyl-1H-benzimidazol-6-yl)-2,3-dihydro-1,4-benzoxazepin-4(5H)-yl]-5-[2-(methyloxy)ethyl]pyrimidin-2-yl}methanamine] | 500 to 2500
22 | Cc1nc2cc(-c3ccc4c(c3)CN(c3nc(CN(C)C)nc(C)c3-c3ccccc3)CCO4)ccc2[nH]1 [Compound 21, N,N-dimethyl-1-{4-methyl-6-[7-(2-methyl-1H-benzimidazol-5-yl)-2,3-dihydro-1,4-benzoxazepin-4(5H)-yl]-5-phenylpyrimidin-2-yl}methanamine] | 100 to 500
23 | Cc1nc2cc(-c3ccc4c(c3)CN(c3nc(N)nc5c3CC(C)(C)CC5)CCO4)ccc2[nH]1 [Compound 29, 6,6-dimethyl-4-[7-(2-methyl-1H-benzimidazol-5-yl)-2,3-dihydro-1,4-benzoxazepin-4(5H)-yl]-5,6,7,8-tetrahydroquinazolin-2-amine] | ≤ 100
24 | Cc1nc(N)nc(N2CCOc3ccc(-c4ccc5[nH]cnc5c4)cc3C2)c1C(C)C [Compound 40, 4-[7-(1H-benzimidazol-5-yl)-2,3-dihydro-1,4-benzoxazepin-4(5H)-yl]-6-methyl-5-(1-methylethyl)pyrimidin-2-amine] | ≤ 100
25 | Cc1nc2cc(-c3ccc4c(c3)CN(c3nc(CN(C)C)nc(C)c3Br)CCO4)ccc2[nH]1 [Compound 30, 1-{5-bromo-4-methyl-6-[7-(2-methyl-1H-benzimidazol-5-yl)-2,3-dihydro-1,4-benzoxazepin-4(5H)-yl]pyrimidin-2-yl}-N,N-dimethylmethanamine] | 500 to 2500
26 | COc1ccc(-c2ccc3c(c2)CN(c2nc(CN(C)C)nc(C)c2C(C)C)CCO3)cc1NS(C)(=O)=O [Compound 10] | 100 to 500
27 | Cc1nc(N)nc(N2CCOc3ccc(-c4ccc5[nH]cnc5c4)cc3C2)c1Cc1ccc(F)cc1 [Compound 36, 4-[7-(1H-benzimidazol-5-yl)-2,3-dihydro-1,4-benzoxazepin-4(5H)-yl]-5-[(4-fluorophenyl)methyl]-6-methylpyrimidin-2-amine] | ≤ 100
